Reference: US20230053119A1, “FUSION POLYPEPTIDE COMPRISING Fc REGION OF IMMUNOGLOBULIN AND GDF15” (LG CHEM, LTD., priority 2019, published 2023)

What was measured:
Format in all cases: in vivo
[1] = tested on: DIO mouse model (C57BL/6J-DIO); experiment: Weight change in DIO mice after IgG4-GDF / IgG4-GDF(CRL) administration; conditions: for Body Weight, Mean: 3 nmol/kg s.c. Daily Inj.
Protocol: (§1) The pharmacological effect of the fusion polypeptide produced and purified in Example 1 was tested in mice (C57BL/6J, 6 weeks, male, 100 mice; RaonBio).
The test materials (IgG4-GDF ? GDF IgG4-GDF(CRL)) and control material
(§2) Semaglutide (Bachem) were subcutaneously administered. The dose of all the control material and test materials was 5 mL/kg, and the dose by individual was calculated on the basis of the recently measured weight, […] (1 mL). […] For a comparison group in which Semaglutide was administered, Semaglutide were administered every day once a day. All administrations were progressed from 9 AM.
The weight of each mouse was measured at the day of the start of administration of the test materials (before administration), and then the weight was measured every day (measured by 19 days at maximum). The dose of the test materials was determined on the basis of the most recently measured weight.

[2] = tested on: DIO mouse model (C57BL/6J-DIO); experiment: Feed intake in DIO mice after IgG4-GDF / IgG4-GDF(CRL) administration; conditions: 3 nmol/kg s.c. Daily Inj.
Protocol: as §1, §2
(§3) In addition, after administering the test materials to mice, the feed intake was measured every day, and the amount of feeding was measured using an electronic scale by each breeding box, and then the residual amount was measured to calculate the feed intake a day. Individuals who severely ate the feed were excluded from the measurement.

[3] = tested on: DIO mouse model (C57BL/6J-DIO); experiment: Weight change in DIO mice after HIgG1-GDF(CRL) / IgG1-GDF(CRL) administration; conditions: for Body Weight, Mean: 2.86 nmol/kg s.c. Daily Inj. for 5 days
Protocol: as §1
(§4) All the control material and test materials were administered subcutaneously. The administration route of the control material and test materials was selected as a subcutaneous route depending on the clinical intended route of administration.
The dose of all the control material and test materials was 5 mL/kg, and the dose by individual was calculated on the basis of the recently measured weight, […] (1 mL). […] For comparison, the control group in which the control material GDF15 was prepared, and for the comparison group in which GDF15 was administered, they were administered once a day for 5 days, 5 times in total, and all administrations were progressed from 9 AM.
The weight of each mouse was measured at the day of the start of administration of the test materials (before administration), and then the weight was measured every day (measured by 9 days at maximum). The dose of the test materials was determined on the basis of the most recently measured weight.

[4] = tested on: DIO mouse model (C57BL/6J-DIO); experiment: Feed intake in DIO mice after HIgG1-GDF(CRL) / IgG1-GDF(CRL) administration; conditions: 2.86 nmol/kg s.c. Daily Inj. for 5 days
Protocol: as §1, §4
The dose of all the control material and test materials was 5 mL/kg, and the dose by individual was calculated on the basis of the recently measured weight, and they were administered subcutaneously once at the test start day using a disposable syringe (1 mL). […] For comparison, the control group in which the control material GDF15 was prepared, and for the comparison group in which GDF15 was administered, they were administered once a day for 5 days, 5 times in total, and all administrations were progressed from 9 AM.
as §3

[5] = Pharmacodynamic (PK) test in SD rat, serum concentration by Human GDF15 ELISA; conditions: 2 mg/kg subcutaneous
Protocol: For evaluation of pharmacodynamic characteristics when each polypeptide was subcutaneously administered to rats, polypeptide IgG4-GDF or IgG4-GDF(CRL) was subcutaneously administered in an amount of 2 mg/kg, respectively, to SD Rat (Koatech, male, 7 weeks, about 250g; n=3 each; test group), and at a fixed time, blood was collected about […] through a caudal vein. Blood collecting was progressed before administration of the fusion polypeptide, in 1, 2, 4, 8, 24, 48, 72, 96, 168, 240 and 336 hours after administration. As a control group for comparison of pharmacodynamic characteristics, GDF15 (R&D Systems) was subcutaneously administered in an amount of 2 mg/kg by the same method as above to prepare GDF15 administration group.
After administering to SD Rat as above, blood collected by time-point was centrifuged to obtain serum, and ELISA was performed using Human GDF15 Immunoassay (SGD150, R&D Systems), to measure the concentration in serum over time for each polypeptide.

Semaglutide [reference compound]
Body Weight, Mean ([1]; Day 0): 100 % of initial | Body Weight, Mean ([1]; Day 1): 94 % of initial | Body Weight, Mean ([1]; Day 2): 91 % of initial | Body Weight, Mean ([1]; Day 3): 90 % of initial | Body Weight, Mean ([1]; Day 4): 87 % of initial | Body Weight, Mean ([1]; Day 5): 87 % of initial | Body Weight, Mean ([1]; Day 6): 85 % of initial | Body Weight, Mean ([1]; Day 7): 86 % of initial | Body Weight, Mean ([1]; Day 8): 83 % of initial | Body Weight, Mean ([1]; Day 9): 85 % of initial | Body Weight, Mean ([1]; Day 10): 84 % of initial | Body Weight, Mean ([1]; Day 11): 82 % of initial | Body Weight, Mean ([1]; Day 12): 81 % of initial | Body Weight, Mean ([1]; Day 13): 82 % of initial | Body Weight, Mean ([1]; Day 14): 81 % of initial | Body Weight, Mean ([1]; Day 15): 79 % of initial | Body Weight, Mean ([1]; Day 16): 79 % of initial | Body Weight, Mean ([1]; Day 17): 78 % of initial | Body Weight, Mean ([1]; Day 18): 77 % of initial | Body Weight, Mean ([1]; Day 19): 77 % of initial | weight loss (in words) ([1]; daily administration): weight loss was consistent | Feed intake a day, Mean ([2]; Day 0): 3.7 | Feed intake a day, Mean ([2]; Day 1): 2.1 | Feed intake a day, Mean ([2]; Day 2): 3.3 | Feed intake a day, Mean ([2]; Day 3): 2.8 | Feed intake a day, Mean ([2]; Day 4): 2.3 | Feed intake a day, Mean ([2]; Day 5): 2.9 | Feed intake a day, Mean ([2]; Day 6): 2.7 | Feed intake a day, Mean ([2]; Day 7): 3.2 | Feed intake a day, Mean ([2]; Day 8): 2.4 | Feed intake a day, Mean ([2]; Day 9): 3.7 | Feed intake a day, Mean ([2]; Day 10): 2.7 | Feed intake a day, Mean ([2]; Day 11): 2.5 | Feed intake a day, Mean ([2]; Day 12): 2.4 | Feed intake a day, Mean ([2]; Day 13): 3.0 | Feed intake a day, Mean ([2]; Day 14): 2.5 | Feed intake a day, Mean ([2]; Day 15): 2.1 | Feed intake a day, Mean ([2]; Day 16): 2.5 | Feed intake a day, Mean ([2]; Day 17): 2.0 | Feed intake a day, Mean ([2]; Day 18): 2.2 | Feed intake a day, Mean ([2]; Day 19): 3.7

GDF15: control material GDF15 (R&D Systems), Growth/differentiation factor 15 not fused with Fc
Body Weight, Mean ([3]; Day 0): 100 % of initial | Body Weight, Mean ([3]; Day 1): 99 % of initial | Body Weight, Mean ([3]; Day 2): 98 % of initial | Body Weight, Mean ([3]; Day 3): 97 % of initial | Body Weight, Mean ([3]; Day 4): 96 % of initial | Body Weight, Mean ([3]; Day 5): 95 % of initial | Body Weight, Mean ([3]; Day 6): 95 % of initial | Body Weight, Mean ([3]; Day 7): 95 % of initial | Body Weight, Mean ([3]; Day 8): 96 % of initial | Body Weight, Mean ([3]; Day 9): 97 % of initial | weight loss effect (in words) ([3]; daily administration, stopping administration from Day 5): weight loss effect disappeared from Day 6 | Feed intake a day, Mean ([4]; Day 0): 2.8 | Feed intake a day, Mean ([4]; Day 1): 2.4 | Feed intake a day, Mean ([4]; Day 2): 2.7 | Feed intake a day, Mean ([4]; Day 3): 2.4 | Feed intake a day, Mean ([4]; Day 4): 2.5 | Feed intake a day, Mean ([4]; Day 5): 2.6 | Feed intake a day, Mean ([4]; Day 6): 2.7 | Feed intake a day, Mean ([4]; Day 7): 3.0 | Feed intake a day, Mean ([4]; Day 8): 3.3 | Feed intake a day, Mean ([4]; Day 9): 3.5 | AUCextp ([5]; [(AUCinf − AUClast)/AUCinf]*100): 0.463% | AUClast ([5]; serum): 4860 ng·h/mL | Cmax (maximum blood concentration) ([5]; serum): 443 ng/mL | Tmax (time to reach maximum blood concentration) ([5]; serum): 1 h | half-life ([5]; serum): 19 h | t1/2 (elimination half-life) ([5]; serum): 19.0 h | AUCinf ([5]; serum, extrapolated to infinite time): 4880 ng·h/mL
